Results on 6 compounds are retold here after patent publication US8445542B2, “Methods of accelerating muscle growth, decreasing fat deposits and improving feed efficiency in livestock animals” (Bridge Pharma, Inc., priority 2006, dated 2013).

One data set deals with beta-3 receptors (Homo sapiens, UniProt P13945). The conditions noted are these: background statement; cited from earlier work.
A further data set has as its system adrenergic beta-receptor. The data set can be described thus: Adrenergic beta-receptor stimulating activity of the isomers. The following applies: compared with RR-ractopamine; this document and Shappell et al, 2000. The text has this:
J. Anim. Sci. 2000, 78: 699-708, which publication is hereby included in its entirety by reference.)

Data set [1] concerns mice. The data set can be described thus: Stress testing in mice, methodology of Aberg (U.S. Pat. No. 6,372,799).
Data set [2] has as its system adrenergic alpha-receptors. The conditions noted are these: isolated smooth and cardiac muscle tissues of rat and guinea pig; Colbert et al. 1991; cited from earlier work.
For another data set, the system named is laboratory animals. The data set can be described thus: Neuropharmacological profile (Irwin test), repeated oral administration.
The test system of the next data set is livestock animals. The conditions noted are these: Marchant-Forde et al., cited from earlier work; for tachycardia in livestock animals: 2003 and London et al. 2005.
Data set [3] has as its target adrenergic beta-3 receptors (Homo sapiens, UniProt P13945). The data set can be described thus: Receptor binding, beta-3 (present studies).
Data set [4] relates to adrenergic beta-receptors in adipose tissue. The following applies: animals exposed to the drug; Spurlock et al. 1994; cited from earlier work.
The subject of data set [5] is mice. The experiment in a line: Spontaneous motor activity in mice (part of Irwin tests). The class given is in vivo. The following applies: oral.
In data set [6] the target is porcine adrenergic β-2 receptors (Sus scrofa, UniProt Q28997). The conditions noted are these: Mills et al., 2003; cited from earlier work.
The target of data set [7] is adrenergic beta-1 receptors (Homo sapiens, UniProt P08588). The experiment in a line: Receptor binding studies, beta-1. The source says: Interesting and important advantages of receptor selectivity by RR-ractopamine were found.
Data set [8] concerns Airway smooth muscle tissues. The experiment in a line: Airway smooth muscle contracted by carbachol. The conditions noted are these: ongoing studies. The text has this:
Airway smooth muscle tissues were contracted by carbachol. The inhibitory effects of isomers, enantiomeric pairs and a racemic mixture of ractopamine are being investigated.
Test results from these functional studies verify and support the results from the receptor binding studies.

beta-3 receptors, sequence (P13945 whole entry): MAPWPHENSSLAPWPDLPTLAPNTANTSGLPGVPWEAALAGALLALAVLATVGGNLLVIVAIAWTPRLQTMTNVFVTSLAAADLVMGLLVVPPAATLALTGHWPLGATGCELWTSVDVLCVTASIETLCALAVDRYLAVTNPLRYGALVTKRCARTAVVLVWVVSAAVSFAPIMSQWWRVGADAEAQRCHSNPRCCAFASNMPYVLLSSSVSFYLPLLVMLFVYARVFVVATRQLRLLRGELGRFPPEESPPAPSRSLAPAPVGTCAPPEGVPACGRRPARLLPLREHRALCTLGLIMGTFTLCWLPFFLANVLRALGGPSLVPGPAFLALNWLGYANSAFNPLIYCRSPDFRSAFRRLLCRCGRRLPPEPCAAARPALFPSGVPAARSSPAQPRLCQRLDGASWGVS
adrenergic beta-3 receptors, sequence (P13945 whole entry): as above
porcine adrenergic β-2 receptors, sequence (Q28997 whole entry): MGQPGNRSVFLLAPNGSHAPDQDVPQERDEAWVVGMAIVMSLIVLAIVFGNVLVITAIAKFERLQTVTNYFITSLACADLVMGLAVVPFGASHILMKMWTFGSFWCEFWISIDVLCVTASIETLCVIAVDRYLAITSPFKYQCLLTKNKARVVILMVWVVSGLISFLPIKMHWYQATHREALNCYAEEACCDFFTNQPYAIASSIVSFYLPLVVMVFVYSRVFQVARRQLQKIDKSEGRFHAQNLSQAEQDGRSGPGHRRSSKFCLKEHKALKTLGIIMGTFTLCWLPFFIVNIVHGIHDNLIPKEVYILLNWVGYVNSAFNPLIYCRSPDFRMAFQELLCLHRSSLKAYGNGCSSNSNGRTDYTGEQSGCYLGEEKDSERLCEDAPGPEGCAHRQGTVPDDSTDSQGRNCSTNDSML
adrenergic beta-1 receptors, sequence (P08588 whole entry): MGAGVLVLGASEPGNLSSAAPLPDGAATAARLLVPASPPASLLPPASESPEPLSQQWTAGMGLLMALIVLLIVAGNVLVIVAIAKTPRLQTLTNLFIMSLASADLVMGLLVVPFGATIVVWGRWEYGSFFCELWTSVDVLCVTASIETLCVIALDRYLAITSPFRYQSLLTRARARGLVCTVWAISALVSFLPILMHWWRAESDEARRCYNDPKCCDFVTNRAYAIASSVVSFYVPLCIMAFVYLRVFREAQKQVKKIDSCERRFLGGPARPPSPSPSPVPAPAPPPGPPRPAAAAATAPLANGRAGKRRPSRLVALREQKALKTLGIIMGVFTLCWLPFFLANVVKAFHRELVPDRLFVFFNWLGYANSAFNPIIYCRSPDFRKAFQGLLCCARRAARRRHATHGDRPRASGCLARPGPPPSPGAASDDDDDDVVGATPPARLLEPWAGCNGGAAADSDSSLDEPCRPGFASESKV

Turning to `CC(C)(C)NCC(O)c1ccc(O)c(CO)c1` (centres unmarked) [salbutamol], the “affinity for beta-3 receptors” value at beta-3 receptors is recorded as “negligible affinity”.

For `CC(CCc1ccc(O)cc1)NCC(O)c1ccc(O)cc1` (centres unmarked) [RS], the “adrenergic beta-receptor stimulating activity” value in the data set on adrenergic beta-receptor is recorded as “reduced beta-receptor activity”.

On to `CC(CCc1ccc(O)cc1)NCC(O)c1ccc(O)cc1.Cl` (racemic) [racemic ractopamine, 4-hydroxy-a-[[[3-(4-hydroxyphenyl)-1-methylpropyl]amino]methyl]benzenemethanol hydrochloride], for which the CNS-mediated stress entry with mice [1] (mice, ongoing testing) is given as “demonstrate CNS-mediated stress”. Also, the “effect on adrenergic alpha-receptors” value in [2] is “no significant effect”. The “stress in Irwin test” value in the data set with laboratory animals (repeated oral administration) was “produced increased stress”. Further, the “CNS-mediated stress in livestock animals” value in the data set on livestock animals (2003) is given as “cause CNS-mediated stress”. Further, the “tachycardia in livestock animals” value in the data set on livestock animals was “significant tachycardia”. Moreover, in data set [3], the “affinity for adrenergic beta-3 receptors” value was “neither racemic ractopamine nor any of the ractopamine isomers had affinity”. The “affinity for beta-3 receptors” value on beta-3 receptors is reported as “negligible affinity”. Besides, in [4], the “reduction of the concentration of adrenergic beta-receptors in adipose tissue” value is reported as 50%.

“RR-4-hydroxy-a-[[[3-(4-hydroxyphenyl)-1-methylpropyl]amino]methyl]benzenemethanol [RR-ractopamine]”: the optical stability result in “Optical stability” is “optically stable”. For the same compound, the CNS-mediated stress entry in the data set with mice [1] (mouse, in vivo) was “not causing stress”. The “stress in Irwin test” value with laboratory animals (mouse, in vivo, po) is listed as “did not cause stress”. Moreover, in the data set on mice [5], the “effect on spontaneous motor activity” value is reported as “no statistically significant effects”. In addition, the “binding affinity relative to the racemic mixture of all four isomers” value in data set [6] was “about 2.5 times”. Moreover, the “affinity for adrenergic beta-1 receptors compared with the racemic mixture of all four isomers” value in data set [7] is reported as “higher affinity”.

On to `C[C@@H](CCc1ccc(O)cc1)NC[C@@H](O)c1ccc(O)cc1` (racemic) [SS-ractopamine], for which the “airway smooth muscle relaxing activity” value in [8] is recorded as “very weak activity”. Also, the “adrenergic beta-receptor stimulating activity” value in the data set with adrenergic beta-receptor is given as “completely devoid of adrenergic beta-receptor stimulating activity”.

Take `CC(C)(C)NC[C@H](O)c1ccc(O)c(CO)c1` [R-salbutamol]: the “stress in Irwin test” value with laboratory animals (repeated oral administration) is on record as “no stress”. For the same compound, in the data set with livestock animals, the “tachycardia in livestock animals” value is “not causing tachycardia”.
